Laboratory results: ChEMBL document CHEMBL1132795, “Stereoselective binding of an enantiomeric pair of stromelysin-1 inhibitors caused by conformational entropy factors” (Bioorg Med Chem Lett, 2000)

Assays:
[1] = Binding affinity of compound to the stromelysin-1 catalytic domain at pH 6.7, 22 degree C
[2] = Binding affinity of compound to the stromelysin-1 catalytic domain at pH 6.0, 22 degree C

Row | SMILES | Kd [1] | Kd [2]
1 | CC(C)[C@@H](NS(=O)(=O)c1ccc(-c2ccc(Br)cc2)cc1)C(=O)O | 679 nM | –
2 | CC(C)[C@H](NS(=O)(=O)c1ccc(-c2ccc(Br)cc2)cc1)C(=O)O | 76.6 nM | 6.7 nM
